In patent US20220323406A1, “METHODS AND COMPOSITIONS FOR DIFFERENTIATING STEM CELLS” (Massachusetts Institute of Technology, priority 2019, published 2022):

Experiments:
ENR+CD organoids = test: Primary screen: ATP (CellTiter-Glo 3D, CTG) cell number/viability, 2.5-D 384-well ENR+CD organoids; details: primary screen; for Z.CTG: standard z score;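 for all read-outs here: compounds given at plating and again on day 3 over a 6-day differentiation from ENR+CV stem-cell-enriched precursors, ATP measured on day 6, plate median as control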
[1] = system: ENR+CD organoids (ISC to Paneth cell differentiation); test: Primary screen: CCh-stimulated lysozyme secretion LYZ.S, 2.5-D 384-well ENR+CD organoid differentiation; format: cell-based, mouse; details: primary screen
Text: (§1) High-throughput screening.

[2] = system: ENR+CD organoids (ISC to Paneth cell differentiation); test: Primary screen: basal (non-stimulated) lysozyme secretion LYZ.NS, 2.5-D 384-well ENR+CD organoid differentiation; format: cell-based, mouse; details: primary screen; for Z.LYZ.NS: standard z score
Text: as §1

[3] = dose 0.08 uM, FC relative to plate median
[4] = dose 0.40 uM, FC relative to plate median
[5] = dose 2.00 uM, FC relative to plate median
[6] = dose 10.00 uM, FC relative to plate median
[7] = dose 0.08 uM, FC vs plate median
[8] = dose 0.40 uM, FC vs plate median
[9] = dose 2.00 uM, FC vs plate median
[10] = dose 10.00 uM, FC vs plate median

SNS-314 Mesylate
Dose.FC.CTG (ENR+CD organoids; [3]): −0.666 log2 fold change
Z.CTG (ENR+CD organoids; dose 0.08 uM): −1.591
Dose.FC.CTG (ENR+CD organoids; [4]): −0.777 log2 fold change
Z.CTG (ENR+CD organoids; dose 0.40 uM): −1.857
Dose.FC.CTG (ENR+CD organoids; [5]): −0.478 log2 fold change
Z.CTG (ENR+CD organoids; dose 2.00 uM): −1.142
Dose.FC.CTG (ENR+CD organoids; [6]): −0.620 log2 fold change
Z.CTG (ENR+CD organoids; dose 10.00 uM): −1.480
Dose.FC.LYZ.S [1, 3]: −0.115 log2 fold change
Dose.FC.LYZ.S [1, 4]: −0.103 log2 fold change
Dose.FC.LYZ.S [1, 5]: −0.133 log2 fold change
Dose.FC.LYZ.S [1, 6]: −0.198 log2 fold change
Dose.FC.LYZ.NS [2, 3]: −0.071 log2 fold change
Z.LYZ.NS ([2]; dose 0.08 uM): −0.620
Dose.FC.LYZ.NS [2, 4]: −0.059 log2 fold change
Z.LYZ.NS ([2]; dose 0.40 uM): −0.515
Dose.FC.LYZ.NS [2, 5]: −0.128 log2 fold change
Z.LYZ.NS ([2]; dose 2.00 uM): −1.111
Dose.FC.LYZ.NS [2, 6]: −0.127 log2 fold change
Z.LYZ.NS ([2]; dose 10.00 uM): −1.109

Nc1cccc2c1C(=O)N(C1CCC(=O)NC1=O)C2=O (stereo not drawn) [Pomalidomide]
Dose.FC.CTG (ENR+CD organoids; [7]): 0.063 log2 fold change
Dose.FC.CTG (ENR+CD organoids; [8]): 0.224 log2 fold change
Dose.FC.CTG (ENR+CD organoids; [9]): −0.216 log2 fold change
Dose.FC.CTG (ENR+CD organoids; [10]): −0.305 log2 fold change
Dose.FC.LYZ.S [1, 7]: −0.028 log2 fold change
Dose.FC.LYZ.S [1, 8]: −0.082 log2 fold change
Dose.FC.LYZ.S [1, 9]: −0.115 log2 fold change
Dose.FC.LYZ.S [1, 10]: −0.205 log2 fold change
Z.LYZ.NS ([2]; dose 0.08 uM): −0.019
Z.LYZ.NS ([2]; dose 0.40 uM): −0.013
Z.LYZ.NS ([2]; dose 2.00 uM): −0.334
Z.LYZ.NS ([2]; dose 10.00 uM): −1.098
Dose.FC.LYZ.NS [2, 7]: −0.002 log2 fold change
Dose.FC.LYZ.NS [2, 8]: −0.001 log2 fold change
Dose.FC.LYZ.NS [2, 9]: −0.038 log2 fold change
Dose.FC.LYZ.NS [2, 10]: −0.126 log2 fold change

Ifenprodil Tartrate
Dose.FC.CTG (log2 fold change) (ENR+CD organoids; dose 0.08 uM): 0.102
Z.CTG (standard z score) (ENR+CD organoids; dose 0.08 uM): 0.243
Dose.FC.CTG (log2 fold change) (ENR+CD organoids; dose 0.40 uM): 0.111
Z.CTG (standard z score) (ENR+CD organoids; dose 0.40 uM): 0.265
Dose.FC.CTG (log2 fold change) (ENR+CD organoids; dose 2.00 uM): −0.003
Z.CTG (standard z score) (ENR+CD organoids; dose 2.00 uM): −0.008
Dose.FC.CTG (log2 fold change) (ENR+CD organoids; dose 10.00 uM): −1.034
Z.CTG (standard z score) (ENR+CD organoids; dose 10.00 uM): −2.471
Dose.FC.LYZ.S (log2 fold change) ([1]; dose 0.08 uM): 0.050
Dose.FC.LYZ.S (log2 fold change) ([1]; dose 0.40 uM): 0.017
Dose.FC.LYZ.S (log2 fold change) ([1]; dose 2.00 uM): −0.023
Dose.FC.LYZ.S (log2 fold change) ([1]; dose 10.00 uM): −0.301
Dose.FC.LYZ.NS (log2 fold change) ([2]; dose 0.08 uM): 0.056
Z.LYZ.NS (standard z score) ([2]; dose 0.08 uM): 0.492
Dose.FC.LYZ.NS (log2 fold change) ([2]; dose 0.40 uM): −0.019
Z.LYZ.NS (standard z score) ([2]; dose 0.40 uM): −0.161
Dose.FC.LYZ.NS (log2 fold change) ([2]; dose 2.00 uM): 0.123
Z.LYZ.NS (standard z score) ([2]; dose 2.00 uM): 1.068
Dose.FC.LYZ.NS (log2 fold change) ([2]; dose 10.00 uM): −0.219
Z.LYZ.NS (standard z score) ([2]; dose 10.00 uM): −1.909

COc1c(O)cc2c(c1O)[C@@H]1O[C@H](CO)[C@@H](O)[C@H](O)[C@H]1OC2=O [Bergenin]
Dose.FC.CTG (ENR+CD organoids; dose 0.08 uM): 0.288 log2 fold change
Dose.FC.CTG (ENR+CD organoids; dose 0.40 uM): 0.245 log2 fold change
Dose.FC.CTG (ENR+CD organoids; dose 2.00 uM): 0.205 log2 fold change
Dose.FC.CTG (ENR+CD organoids; dose 10.00 uM): 0.344 log2 fold change
Dose.FC.LYZ.S ([1]; dose 0.08 uM): 0.198 log2 fold change
Dose.FC.LYZ.S ([1]; dose 0.40 uM): 0.108 log2 fold change
Dose.FC.LYZ.S ([1]; dose 2.00 uM): 0.125 log2 fold change
Dose.FC.LYZ.S ([1]; dose 10.00 uM): 0.144 log2 fold change
Dose.FC.LYZ.NS ([2]; dose 0.08 uM): 0.164 log2 fold change
Z.LYZ.NS (standard z score) ([2]; dose 0.08 uM): 1.432
Dose.FC.LYZ.NS ([2]; dose 0.40 uM): 0.098 log2 fold change
Z.LYZ.NS (standard z score) ([2]; dose 0.40 uM): 0.852
Dose.FC.LYZ.NS ([2]; dose 2.00 uM): 0.080 log2 fold change
Z.LYZ.NS (standard z score) ([2]; dose 2.00 uM): 0.699
Dose.FC.LYZ.NS ([2]; dose 10.00 uM): 0.103 log2 fold change
Z.LYZ.NS (standard z score) ([2]; dose 10.00 uM): 0.898
